Laboratory results: patent publication US9682967B2
pIC50, pKi: −log10 of the molar value.

Legend:
mSortilin = mSortilin (Mus musculus (Mouse), UniProt Q6PHU5); experiment: mSortilin affinity assay (displacement of 3H-neurotensin, SPA); format: binding
Method: Mouse his-Sortilin was purchased from R&D Systems.
The Sortilin assay was performed in total volume of 40 ul in 50 mM HEPES pH 7.4 assay buffer containing 100 mM NaCl, 2.0 mM CaCl2, 0.1% BSA and 0.1% Tween-20. Varying concentration of compounds where pre-incubated for 30 min at RT with 50 nM of 6his-Sortilin. […] Ni chelate imaging beads (Perkin elmer) was added and the plate was slowly shacked in the dark for 60 min. The imaging beads were allowed minimum 6 hours settling time before the plate was read on a ViewLux with 360 sec exposure time. Dose-response evaluation of compounds was performed with 10 concentrations of drugs (covering 3 decades). IC50 values were calculated by nonlinear regression using the sigmoid concentration-response (variable slope) using Xlfit 4 (IDBS, UK). The results were given as Ki values (nM) derived from computer fitted IC50 values converted to Ki values using the Cheng-Prusoff equation (Ki=IC50/(1+(L/Kd))).

[1] = target: human sortilin (S-18 cells) (Homo sapiens (Human), UniProt Q99523); experiment: Endogenous PGRN endocytosis assay (PGRN ELISA of media); format: cell-based; settings: for PGRN levels in cell culture media (FIG. 1): PGRN allowed to accumulate 24 hrs, then compounds for further 24 hrs
Sequence of human sortilin (S-18 cells) (Q99523 78-831): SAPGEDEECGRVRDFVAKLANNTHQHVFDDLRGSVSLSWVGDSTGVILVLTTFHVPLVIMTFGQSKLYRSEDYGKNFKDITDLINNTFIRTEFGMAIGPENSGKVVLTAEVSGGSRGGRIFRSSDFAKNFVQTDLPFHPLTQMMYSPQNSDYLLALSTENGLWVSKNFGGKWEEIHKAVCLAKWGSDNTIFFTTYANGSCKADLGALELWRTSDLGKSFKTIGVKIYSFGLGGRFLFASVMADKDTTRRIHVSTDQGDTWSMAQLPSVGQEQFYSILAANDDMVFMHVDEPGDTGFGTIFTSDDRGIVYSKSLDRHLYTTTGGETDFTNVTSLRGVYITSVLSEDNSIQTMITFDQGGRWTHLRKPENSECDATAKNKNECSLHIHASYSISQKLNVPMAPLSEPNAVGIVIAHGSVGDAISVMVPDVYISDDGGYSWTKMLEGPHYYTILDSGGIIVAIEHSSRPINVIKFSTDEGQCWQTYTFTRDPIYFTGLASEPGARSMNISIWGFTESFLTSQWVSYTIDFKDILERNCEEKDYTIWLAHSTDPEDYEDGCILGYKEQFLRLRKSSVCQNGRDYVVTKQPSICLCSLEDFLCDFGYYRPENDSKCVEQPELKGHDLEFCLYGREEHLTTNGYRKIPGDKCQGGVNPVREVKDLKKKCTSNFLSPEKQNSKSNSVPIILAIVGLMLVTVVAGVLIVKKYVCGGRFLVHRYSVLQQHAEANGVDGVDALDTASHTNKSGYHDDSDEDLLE

[2] = target: human sortilin (HEK 293 / S-18 cells) (Homo sapiens (Human), UniProt Q99523); experiment: Cellomics progranulin assay (PGRN binding/endocytosis, staining intensity); format: cell-based; settings: compounds 30 min, then PGRN 60 min
Sequence of human sortilin (HEK 293 / S-18 cells) (Q99523 78-831): as above
Method: Cellomics Progranulin Assay
Transfected HEK 293 cells (with control or sortilin expression plasmids) or stable HEK293 cells expressing human sortilin (S-18) were used in this assay. Cells are trypsinized and plated in 96 well plates. In the case of transiently transfected cells, they were plated 24 hrs after transfection in 96 well plates. Next day, media was changed completely and test compounds added to cells for 30 min. followed by PGRN for 60 min. At the end of the study (after 1.5 hrs), the cells were fixed and stained for sortilin and progranulin. All stained plates were analyzed by Cellomics Array Scan (Thermo Fischer) and average staining intensity for PGRN and sortilin are calculated per cell in each well.

hSortilin = hSortilin (Homo sapiens (Human), UniProt Q99523); experiment: hSortilin affinity assay (displacement of 3H-neurotensin, SPA); format: binding
Sequence of hSortilin (Q99523 34-755): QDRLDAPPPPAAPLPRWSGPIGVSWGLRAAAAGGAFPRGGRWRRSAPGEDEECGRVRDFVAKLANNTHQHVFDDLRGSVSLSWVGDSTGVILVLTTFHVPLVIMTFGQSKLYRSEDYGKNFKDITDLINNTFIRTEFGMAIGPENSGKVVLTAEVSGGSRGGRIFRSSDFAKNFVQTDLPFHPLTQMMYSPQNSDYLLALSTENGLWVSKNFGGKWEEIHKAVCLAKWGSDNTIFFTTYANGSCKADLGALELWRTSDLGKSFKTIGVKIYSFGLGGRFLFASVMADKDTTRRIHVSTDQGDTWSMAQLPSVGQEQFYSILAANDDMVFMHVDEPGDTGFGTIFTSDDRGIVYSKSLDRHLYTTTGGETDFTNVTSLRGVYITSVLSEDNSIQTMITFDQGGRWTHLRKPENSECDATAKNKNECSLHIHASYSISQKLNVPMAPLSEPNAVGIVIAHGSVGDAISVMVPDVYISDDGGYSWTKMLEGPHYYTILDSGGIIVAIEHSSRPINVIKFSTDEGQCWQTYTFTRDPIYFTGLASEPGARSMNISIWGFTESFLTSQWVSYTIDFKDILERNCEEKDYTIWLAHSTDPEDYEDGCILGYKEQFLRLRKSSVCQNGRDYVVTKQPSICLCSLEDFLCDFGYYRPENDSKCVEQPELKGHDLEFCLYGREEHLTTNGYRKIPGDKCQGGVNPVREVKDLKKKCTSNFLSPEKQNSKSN

Sequence of mSortilin (Q6PHU5 74-825): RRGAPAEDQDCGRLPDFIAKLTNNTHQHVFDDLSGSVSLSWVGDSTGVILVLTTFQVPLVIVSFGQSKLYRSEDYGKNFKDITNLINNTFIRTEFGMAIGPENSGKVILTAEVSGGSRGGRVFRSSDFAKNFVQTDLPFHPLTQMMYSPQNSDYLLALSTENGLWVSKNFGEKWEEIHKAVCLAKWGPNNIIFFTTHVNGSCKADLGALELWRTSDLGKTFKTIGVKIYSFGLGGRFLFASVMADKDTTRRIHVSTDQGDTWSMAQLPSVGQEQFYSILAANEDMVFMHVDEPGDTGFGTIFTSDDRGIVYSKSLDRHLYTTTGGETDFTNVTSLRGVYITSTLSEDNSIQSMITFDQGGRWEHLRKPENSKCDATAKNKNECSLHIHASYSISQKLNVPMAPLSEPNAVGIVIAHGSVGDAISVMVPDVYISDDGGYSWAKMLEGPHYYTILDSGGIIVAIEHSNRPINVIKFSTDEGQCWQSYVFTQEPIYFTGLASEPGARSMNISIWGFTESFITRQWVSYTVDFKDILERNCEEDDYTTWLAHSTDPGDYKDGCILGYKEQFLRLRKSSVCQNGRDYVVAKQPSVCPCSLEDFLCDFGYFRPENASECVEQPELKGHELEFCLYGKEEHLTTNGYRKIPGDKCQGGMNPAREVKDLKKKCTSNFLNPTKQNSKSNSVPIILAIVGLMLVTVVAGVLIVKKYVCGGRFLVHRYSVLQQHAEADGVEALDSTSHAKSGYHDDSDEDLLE

| pIC50 (hSortilin; [3H]-Neurotensin 5 nM, 150 nM 6his-Sortilin, read-out: hSortilin NTS Binding IC50) | pKi (hSortilin; from IC50 by Cheng-Prusoff, Kd neurotensin 100 nM) | Molecule | pIC50 (mSortilin; [3H]-Neurotensin 5 nM, 50 nM 6his-Sortilin, read-out: mSortilin NTS Binding IC50) | pKi (mSortilin; from IC50 by Cheng-Prusoff) | increase in PGRN in cell culture media as compared to control wells ([1]; 10 uM, media collected on day 3) | PGRN levels in cell culture media (FIG. 1) [1] | PGRN fluorescence intensity / binding or endocytosis of PGRN to sortilin expressing cells (FIG. 2) [2] |
| --- | --- | --- | --- | --- | --- | --- | --- |
| – | – | Cc1cccc(NC(=O)c2ccc(C(F)(F)F)cc2C(=O)O)n1 [Example 1, N-(6-Methyl-pyridin-2-yl)-5-trifluoromethyl-phthalamic acid] | 6.66 | 6.68 | 85-100% | increase in PGRN levels | blocks binding or endocytosis of PGRN |
| – | – | scrambled neurotensin: scrambled neurotensin, sequence LIYPRNEYELRKP (SEQ ID NO:1); negative control (Scrambled Human Neurotensin) [reference compound] | – | – | – | did not have any effect | significantly increased |
| 6.52 | 6.54 | Cc1nccc(NC(=O)c2ccc(C(F)(F)F)cc2C(=O)O)n1 [Example 44, 2-((2-methylpyrimidin-4-yl)carbamoyl)-5-(trifluoromethyl)benzoic acid] | – | – | – | – | – |
